Laboratory results published in US10087148B2, “Quinazolines as biogenic amine transport modulators” (THE UNITED STATES OF AMERICA AS REPRESENTED BY THE …, priority 2014, dated 2018).

How the values were obtained:
[1] = target: T1, dopamine transporter (DAT) (Rattus norvegicus (Rat), UniProt P23977); assay: [3H]dopamine (DA) uptake inhibition in rat brain (caudate) synaptosomes; type: biochemical; conditions: for DA Uptake Emax / EC50: rat caudate synaptosomes, 5 nM [3H]dopamine, mean ± SD
Protocol: Uptake inhibition assay for the dopamine transporter was conducted in rat brain synaptosomes as described elsewhere with minor modifications (Rothman et al., Synapse 39, 32-41 (2001)). Freshly removed caudate was homogenized in 10% ice-cold sucrose with 12 strokes of a hand-held Potter-Elvehjem homogenizer followed by centrifugation at 1000×g for 10 min. The supernatants were saved on ice and used immediately. Transporter activity was assessed using 5 nM [^3H]dopamine. The assay buffer was Krebs-phosphate buffer containing 154.4 mM NaCl, 2.9 mM KCl, 1.1 mM CaCl2, 0.83 mM MgCl2, 5 mM glucose, 1 mg/mL ascorbic acid, and 50 μM pargyline. The selectivity of the uptake assay for DAT was optimized by including 100 nM citalopram and 100 nM desipramine as blockers of SERT and NET in the sucrose solution and assay buffer. Uptake inhibition assays were conducted at 25° C. and were initiated by adding 100 μl of tissue to 900 μL assay buffer containing test drug and [^3H]dopamine. Test drugs were diluted in assay buffer containing 1 mg/mL bovine serum albumin. Nonspecific uptake was measured by incubating in the presence of 10 μM indatraline. The reactions were stopped after 15 minutes by rapid vacuum filtration with a cell harvester (BRANDEL) over GF/B filters (Whatman) presoaked in wash buffer maintained at 25° C. (10 mM Tris-HCl, pH 7.4/150 mM NaCl). Filters were rinsed with 6 mL wash buffer and retained tritium was quantified by a MicroBeta liquid scintillation counter (PerkinElmer) after overnight extraction in 0.6 mL of liquid scintillation cocktail (Cytoscint, ICN). The data from three experiments were pooled and fit to a dose-response curve equation (using Kaleidagraph), to yield an Emax and EC50 value.
(§1) All of the test compounds were synthesized as described herein. Next, 8-point dose-response curves were generated for each compound (1-20,000 nM) in the [^3H]DA uptake assay. The data from three experiments were pooled and fit to a dose-response curve equation (using KaleidaGraph; Synergy Software, Reading, Pa.) to yield an Emax and IC50 value. […] Selected compounds were also tested for their ability to inhibit [^3H]WIN35428 binding to rat caudate DAT.

[2] = target: serotonin transporter (SERT) (Rattus norvegicus (Rat), UniProt P31652); assay: [3H]serotonin (5-HT) uptake inhibition in rat brain synaptosomes; type: biochemical; conditions: for Emax: mean ± S.D., n = 3, read-out: SERT Uptake Emax; for 5HT Uptake Emax / EC50: rat brain synaptosomes, 5 nM [3H]serotonin, mean ± SD
Protocol: Uptake inhibition assay for the serotonin transporter was conducted in rat brain synaptosomes as described elsewhere with minor modifications (Rothman et al., Synapse 39, 32-41 (2001)). Freshly removed whole brain minus cerebellum and caudate was homogenized in 10% ice-cold sucrose with 12 strokes of a hand-held Potter-Elvehjem homogenizer followed by centrifugation at 1000×g for 10 min. The supernatants were saved on ice and used immediately. Transporter activity at SERT was assessed using 5 nM [^3H]serotonin. The assay buffer was Krebs-phosphate buffer containing 154.4 mM NaCl, 2.9 mM KCl, 1.1 mM CaCl2, 0.83 mM MgCl2, 5 mM glucose, 1 mg/mL ascorbic acid, and 50 μM pargyline. […] Uptake inhibition assays were conducted at 25° C. and were initiated by adding 100 μL of tissue to 900 μL assay buffer containing test drug and [^3H]serotonin. Test drugs were diluted in assay buffer containing 1 mg/mL bovine serum albumin. Nonspecific uptake was measured by incubating in the presence of 10 μM indatraline. The reactions were stopped after 30 min by rapid vacuum filtration with a cell harvester (BRANDEL) over GF/B filters (Whatman) presoaked in wash buffer maintained at 25° C. (10 mM Tris-HCl, pH 7.4/150 mM NaCl). Filters were rinsed with 6 mL wash buffer and retained tritium was quantified by a MicroBeta liquid scintillation counter (PerkinElmer) after overnight extraction in 0.6 mL of liquid scintillation cocktail (Cytoscint, ICN). The data from three experiments were pooled and fit to a dose-response curve equation (using Kaleidagraph), to yield an Emax and EC50 value.

[3] = target: norepinephrine transporter (NET) (Rattus norvegicus, UniProt Q63380); assay: [3H]norepinephrine (NE) uptake inhibition in rat brain synaptosomes; type: biochemical; conditions: for NE Uptake Emax / EC50: rat brain synaptosomes, 10 nM [3H]norepinephrine, mean ± SD; for EC50: read-out: NE Uptake EC50; for Emax: read-out: NET Uptake Emax; for IC50: read-out: NET Uptake IC50, mean ± S.D., n = 3
Protocol: Uptake inhibition assay for the norepinephrine transporter was conducted in rat brain synaptosomes as described elsewhere with minor modifications (Rothman et al., Synapse 39, 32-41 (2001)). Freshly removed whole brain minus cerebellum and caudate was homogenized in 10% ice-cold sucrose with 12 strokes of a hand-held Potter-Elvehjem homogenizer followed by centrifugation at 1000×g for 10 minutes. The supernatants were saved on ice and used immediately. Transporter activity at NET was assessed using 10 nM [^3H]norepinephrine. The assay buffer was Krebs-phosphate buffer containing 154.4 mM NaCl, 2.9 mM KCl, 1.1 mM CaCl2, 0.83 mM MgCl2, 5 mM glucose, 1 mg/mL ascorbic acid, and 50 μM pargyline. […] Uptake inhibition assays were conducted at 37° C. and were initiated by adding 100 μL of tissue to 900 μL assay buffer containing test drug and [^3H]norepinephrine. Test drugs were diluted in assay buffer containing 1 mg/mL bovine serum albumin. Nonspecific uptake was measured by incubating in the presence of 10 μM indatraline. The reactions were stopped after 10 minutes by rapid vacuum filtration with a cell harvester (BRANDEL) over GF/B filters (Whatman) presoaked in wash buffer maintained at 25° C. (10 mM Tris-HCl, pH 7.4/150 mM NaCl). Filters were rinsed with 6 mL wash buffer and retained tritium was quantified by a MicroBeta liquid scintillation counter (PerkinElmer) after overnight extraction in 0.6 mL of liquid scintillation cocktail (Cytoscint, ICN). The data from three experiments were pooled and fit to a dose-response curve equation (using Kaleidagraph), to yield an Emax and EC50 value.

DAT = DAT (Rattus norvegicus (Rat), UniProt P23977); assay: Inhibition of [3H]WIN35428 binding to rat caudate DAT; conditions: [3H]WIN35428, mean ± S.D., n = 3; for IC50: unit as printed in head (text gives 1100 nM where table prints 1.1)
Protocol: as §1, with “Next, 8-point dose-response curves were generated for each compound (1-20,000 nM) in the [^3H]DA uptake assay.” left out

[4] = target: T1, dopamine transporter (DAT); assay: Dopamine transporter-mediated [3H]MPP+ release (d-amphetamine-induced, shift experiments) in rat caudate synaptosomes; type: biochemical; conditions: [3H]MPP+ release; for Emax: read-out: d-Amphetamine Emax in presence of blocker, blocker concentration per row, mean ± S.D., n = 3
[5] = mean ± S.D., n = 3, read-out: DAT Uptake Emax

Chain of norepinephrine transporter (NET) (Q63380 1-617): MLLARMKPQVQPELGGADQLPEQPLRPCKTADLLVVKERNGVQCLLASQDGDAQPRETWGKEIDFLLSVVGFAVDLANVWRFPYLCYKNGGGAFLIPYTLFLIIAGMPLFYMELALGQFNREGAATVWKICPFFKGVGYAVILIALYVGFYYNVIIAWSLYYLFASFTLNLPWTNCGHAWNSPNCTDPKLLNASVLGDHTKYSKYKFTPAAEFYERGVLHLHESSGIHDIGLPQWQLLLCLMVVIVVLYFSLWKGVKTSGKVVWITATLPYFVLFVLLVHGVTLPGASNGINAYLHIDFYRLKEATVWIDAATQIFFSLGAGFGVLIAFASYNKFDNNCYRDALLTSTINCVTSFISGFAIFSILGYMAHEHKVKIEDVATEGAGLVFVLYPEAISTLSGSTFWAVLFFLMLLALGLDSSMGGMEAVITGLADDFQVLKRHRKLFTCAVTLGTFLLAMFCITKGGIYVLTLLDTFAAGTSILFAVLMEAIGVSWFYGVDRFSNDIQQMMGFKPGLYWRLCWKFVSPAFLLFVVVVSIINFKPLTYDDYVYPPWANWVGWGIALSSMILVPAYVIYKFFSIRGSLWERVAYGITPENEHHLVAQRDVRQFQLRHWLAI
T1 sequence (P23977 whole entry): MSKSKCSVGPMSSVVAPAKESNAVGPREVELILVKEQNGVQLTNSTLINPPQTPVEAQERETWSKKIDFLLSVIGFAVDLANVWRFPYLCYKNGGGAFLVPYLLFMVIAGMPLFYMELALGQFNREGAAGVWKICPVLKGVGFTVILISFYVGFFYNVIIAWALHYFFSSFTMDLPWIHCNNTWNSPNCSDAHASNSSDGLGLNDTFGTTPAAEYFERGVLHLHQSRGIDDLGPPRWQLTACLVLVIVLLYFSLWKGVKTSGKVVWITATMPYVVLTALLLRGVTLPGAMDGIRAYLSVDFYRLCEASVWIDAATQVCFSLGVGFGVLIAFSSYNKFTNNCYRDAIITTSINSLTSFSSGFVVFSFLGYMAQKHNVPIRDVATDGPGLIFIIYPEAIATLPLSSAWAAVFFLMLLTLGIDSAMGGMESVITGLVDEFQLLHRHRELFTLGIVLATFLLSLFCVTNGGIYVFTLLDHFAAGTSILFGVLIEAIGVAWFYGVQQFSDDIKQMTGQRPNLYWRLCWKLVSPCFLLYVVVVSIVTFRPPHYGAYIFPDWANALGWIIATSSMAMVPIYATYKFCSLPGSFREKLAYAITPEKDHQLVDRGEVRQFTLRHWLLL
Chain of DAT (P23977 whole entry): as above
Chain of serotonin transporter (SERT) (P31652 whole entry): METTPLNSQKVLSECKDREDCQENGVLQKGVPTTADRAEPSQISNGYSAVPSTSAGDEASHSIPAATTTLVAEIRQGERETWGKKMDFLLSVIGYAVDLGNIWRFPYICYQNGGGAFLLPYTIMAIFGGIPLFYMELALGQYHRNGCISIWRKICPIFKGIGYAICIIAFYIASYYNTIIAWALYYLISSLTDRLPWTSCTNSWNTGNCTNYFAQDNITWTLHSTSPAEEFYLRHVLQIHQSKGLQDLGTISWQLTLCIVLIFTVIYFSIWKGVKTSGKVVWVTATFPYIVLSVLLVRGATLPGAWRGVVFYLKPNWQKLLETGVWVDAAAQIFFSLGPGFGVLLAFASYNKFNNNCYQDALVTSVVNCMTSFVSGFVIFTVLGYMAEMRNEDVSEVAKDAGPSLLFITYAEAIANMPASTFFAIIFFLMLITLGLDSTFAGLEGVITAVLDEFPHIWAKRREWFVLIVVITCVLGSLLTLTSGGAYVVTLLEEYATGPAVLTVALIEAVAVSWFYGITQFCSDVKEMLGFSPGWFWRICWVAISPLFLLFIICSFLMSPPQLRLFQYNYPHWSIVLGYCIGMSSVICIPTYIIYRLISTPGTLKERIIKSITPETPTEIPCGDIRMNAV

| SMILES | Emax [1, 5] [%] | DA Uptake Emax [1] [% I] | EC50 [1] [nM] | Emax [2] [%] | 5HT Uptake Emax [2] [% I] | EC50 [2] [nM] | NE Uptake Emax [3] [% I] | EC50 [3] [nM] | Emax [3] [%] | IC50 [3] [nM] | Emax (DAT) [%] | IC50 (DAT) [nM] | DAT Uptake Emax ([1]; mean ± S.D., n = 3) [%] | Emax at 0.125 µM ([4]; read-out: D-Amphetamine Emax in presence of compound, compound concentration 125 nM, mean ± SD) [%] | Emax [4] [%] | DAT Binding Emax (DAT) [%] | Emax ([1]; values in Table 9, read-out: Emax for DAT Uptake Inhibition) [%] |
| --- | --- | --- | --- | --- | --- | --- | --- | --- | --- | --- | --- | --- | --- | --- | --- | --- | --- |
| CS(=O)(=O)Nc1ccc(-c2nc(NCC(O)(c3ccccc3)c3ccccc3)c3ccccc3n2)cc1 [Compound 4, N-(4-(4-((2-hydroxy-2,2-diphenylethyl)amino)quinazolin-2-yl)phenyl)methanesulfonamide] | 70 ± 2 | 70 ± 2 | 11 ± 2 | 55 ± 3 | 55 ± 3 | 50 ± 14 | 70 ± 2 | 426 ± 49 | 70 ± 2 | 426 ± 49 | 47 ± 7 | 970 ± 650 |  |  |  |  |  |
| CS(=O)(=O)Nc1ccc(-c2nc(NCC(c3ccccc3)c3ccncc3)c3ccccc3n2)cc1 (centres unmarked) [Compound 10, N-(4-(4-((2-phenyl-2-(pyridin-4-yl)ethyl)amino)quinazolin-2-yl)phenyl)methanesulfonamide] |  | 71 ± 1 |  | 56 ± 1 | 56 ± 1 | 8.7 ± 0.9 | 76 ± 2 | 44 ± 6 | 76 ± 2 | 44 ± 6 |  |  | 71 ± 1 | 103 ± 3 | 103 ± 3 | 52 ± 6 |  |
| Cc1cc(NS(C)(=O)=O)ccc1-c1nc(NCC(c2ccccc2)c2ccncc2)c2ccccc2n1 (centres unmarked) [Compound 29, N-(3-methyl-4-(4-((2-phenyl-2-(pyridin-4-yl)ethyl)amino)quinazolin-2-yl)phenyl)methanesulfonamide] | 74 ± 4 | 74 ± 4 | 7.4 ± 2 | 58 ± 3 | 58 ± 3 | 8 ± 2.8 | 71 ± 3 | 31 ± 7 | 71 ± 3 | 31 ± 7 | 72 ± 7 | 3150 ± 1110 |  |  |  |  |  |
| CS(=O)(=O)Nc1ccc(-c2nc(NCC(c3ccccc3)c3ccccc3)c3ccccc3n2)cc1 [Compound 50, N-(4-(4-((2,2-diphenylethyl)amino)quinazolin-2-yl)phenyl)methanesulfonamide] | 70 ± 2 |  |  | 56 ± 2 |  |  |  |  | 71 ± 2 | 90 ± 15 | 65 ± 6 |  |  |  | 102 ± 2 |  | 70 |
| Cc1cc(NS(C)(=O)=O)ccc1-c1nc(NCC(c2ccccc2)c2ccccc2)c2ccccc2n1 [Compound 52, N-(4-(4-((2,2-diphenylethyl)amino)quinazolin-2-yl)-3-methylphenyl)methanesulfonamide] | 60 ± 2 |  |  | 50 ± 2 |  |  |  |  | 65 ± 3 | 144 ± 30 | 60 ± 7 |  |  |  |  |  |  |
| CS(=O)(=O)Nc1ccc(-c2nc(NCC(c3ccccc3)c3ccccc3)c3ccccc3n2)c(Cl)c1 [Compound 53, N-(3-chloro-4-(4-((2,2-diphenylethyl)amino)quinazolin-2-yl)phenyl)methanesulfonamide] | 67 ± 1 |  |  | 51 ± 2 |  |  |  |  | 67 ± 2 | 47 ± 10 | 30 ± 3 |  |  |  |  |  |  |
| CSc1ncc(-c2nc(NCC(c3ccccc3)c3ccccc3)c3ccccc3n2)cn1 [SRI-29338] | 71 ± 2 |  |  | 52 ± 3 |  |  |  |  | 62 ± 3 | 204 ± 47 | 63 ± 4 | 1180 ± 930 |  |  |  |  |  |
